No end group written: not given here.

This experiment deals with MAb-1H11. The experiment can be described thus: ELISA of peptides competing against plated-out P1, or plated out as BSA conjugates, for MAb-1H11 binding. Details: species or system mouse. The settings on record: for recognition of free cross-linking amino acids by MAb-1H11: made by acid hydrolysis from bone collagen or as present naturally in urine; for recognition by MAb-1H11: ELISA, free peptides competing against plated-out P1, or conjugated to BSA and plated out; for competitive binding with MAb-1H11 (FIG. 9): absorbance at 450 nm of detectable marker bound to plated-out P1 vs concentration of free peptide.

Take `NC(CCCC[n+]1cc(O)c(CC(N)C(=O)O)c(CCC(N)C(=O)O)c1)C(=O)O` (stereo not drawn) [LP, lysyl pyridinoline, reference compound]: the “recognition of free cross-linking amino acids by MAb-1H11” value is listed as “not recognized”.
As for YDEKSTGGC [SEQ ID NO:2], the “recognition by MAb-1H11” value is on record as “not recognized” and the “competitive binding with MAb-1H11 (FIG. 9)” value was “little if any significant competitive binding”.
QYDGKGVGC [SEQ ID NO:1]: the “recognition by MAb-1H11” value is given as “not recognized” and the “competitive binding with MAb-1H11 (FIG. 9)” value is recorded as “little if any significant competitive binding”.
Take `NC(CCc1c[n+](CC(O)CCC(N)C(=O)O)cc(O)c1CC(N)C(=O)O)C(=O)O` (stereo not drawn) [HP, hydroxylysyl pyridinoline, reference compound]: the “recognition of free cross-linking amino acids by MAb-1H11” value is on record as “not recognized”.

The record behind these values is patent US6916604B2, “Uses of synthetic peptides corresponding to telopeptide sequences of cross-linked type I collagen metabolites” (Washington Research Foundation, priority 1987, dated 2005).
